Data published in patent US20200216441A1, “PESTICIDALLY ACTIVE HETEROCYCLIC DERIVATIVES WITH SULFUR CONTAINING SUBSTITUENTS” (SYNGENTA PARTICIPATIONS AG, priority 2017, published 2020).

Legend:
[1] = tested on: Myzus persicae (Green Peach Aphid); test: whole plant or invertebrate; details: foliar, 144 h
[2] = tested on: Spodoptera littoralis (Egyptian Cotton Leaf Worm); test: whole plant or invertebrate; details: in Gossypium barbadense, foliar, 72 h, read-out: control (mortality, anti-feeding effect, growth inhibition)
[3] = tested on: Euschistus heros (Neotropical Brown Stink Bug); test: whole plant or invertebrate; type: in vivo; details: 120 h, application rate of 200 ppm, N2 nymphs on sprayed soybean leaves, 5 days after infestation, read-out: effect in at least one of the two categories (mortality or growth inhibition)
[4] = tested on: Diabrotica Balteata (Corn Root Worm); test: Diabrotica balteata (Corn Root Worm); details: in Zea mays, 96 h, read-out: effect in at least one of the two categories (mortality or growth inhibition)
[5] = tested on: Plutella xylostella (Diamond Back Moth); test: whole plant or invertebrate; type: in vivo; details: 120 h, application rate of 200 ppm, L2 larvae on treated artificial diet, 5 days after infestation, read-out: effect in at least one of the two categories (mortality or growth inhibition)
[6] = tested on: Myzus persicae (Green Peach Aphid); test: whole plant or invertebrate; type: in vivo; details: 144 h, test rate of 24 ppm, systemic, roots of infested pea seedlings in test solution, 6 days

CCS(=O)(=O)c1cc(OC(C)C)cnc1-c1nc2cc(SC(F)F)ncc2n1C [Compound P86, 6-(difluoromethylsulfanyl)-2-(3-ethylsulfonyl-5-isopropoxy-2-pyridyl)-3-methyl-imidazo[4,5-c]pyridine]
≥ 80%: mortality at 200 ppm [1] | mortality at 200 ppm [2] | percent effect (mortality or growth inhibition) at 200 ppm [3] | mortality at 200 ppm [4] | percent effect (mortality or growth inhibition) at 200 ppm [5] | mortality at 24 ppm [6]

CCS(=O)(=O)c1cc(OCC(F)F)ccc1-c1nc2cc(C(F)(F)F)ncc2n1C [Compound P107, 2-[4-(2,2-difluoroethoxy)-2-ethylsulfonyl-phenyl]-3-methyl-6-(trifluoromethyl)imidazo[4,5-c]pyridine]
≥ 80%: mortality at 200 ppm [1] | mortality at 200 ppm [2] | percent effect (mortality or growth inhibition) at 200 ppm [3] | mortality at 200 ppm [4] | percent effect (mortality or growth inhibition) at 200 ppm [5] | mortality at 24 ppm [6]

CCSc1cc(OCC(F)F)cnc1-c1nc2cc(C(F)(F)F)ncc2n1C [Compound P81, 2-[5-(2,2-difluoroethoxy)-3-ethylsulfanyl-2-pyridyl]-3-methyl-6-(trifluoromethyl)imidazo[4,5-c]pyridine]
≥ 80%: mortality at 200 ppm [2] | percent effect (mortality or growth inhibition) at 200 ppm [3] | mortality at 200 ppm [4] | percent effect (mortality or growth inhibition) at 200 ppm [5] | mortality at 24 ppm [6]

CCS(=O)(=O)c1cc(OC2COC2)cnc1-c1nc2cc(C(F)(F)F)ncc2n1C [Compound P1, 2-[3-ethylsulfonyl-5-(oxetan-3-yloxy)-2-pyridyl]-3-methyl-6-(trifluoromethyl)imidazo[4,5-c]pyridine]
≥ 80%: mortality at 200 ppm [1] | percent effect (mortality or growth inhibition) at 200 ppm [3] | mortality at 200 ppm [4] | percent effect (mortality or growth inhibition) at 200 ppm [5] | mortality at 24 ppm [6]

CCS(=O)(=O)c1cc(OC(C)C#N)cnc1-c1nc2cc(C(F)(F)F)ncc2n1C (stereo not shown) [Compound P22, 2-[[5-ethylsulfonyl-6-[3-methyl-6-(trifluoromethyl)imidazo[4,5-c]pyridin-2-yl]-3-pyridyl]oxy]propanenitrile]
≥ 80%: mortality at 200 ppm [1] | mortality at 200 ppm [2] | percent effect (mortality or growth inhibition) at 200 ppm [3] | mortality at 200 ppm [4] | percent effect (mortality or growth inhibition) at 200 ppm [5] | mortality at 24 ppm [6]

CCS(=O)(=O)c1cc(OC)cnc1-c1nc2cc(C(F)(F)F)ncc2n1C [Compound P13, 2-(3-ethylsulfonyl-5-methoxy-2-pyridyl)-3-methyl-6-(trifluoromethyl)imidazo[4,5-c]pyridine]
≥ 80%: mortality at 200 ppm [1] | mortality at 200 ppm [2] | mortality at 200 ppm [4] | percent effect (mortality or growth inhibition) at 200 ppm [5] | mortality at 24 ppm [6]

C#CC(C)(C)Oc1cnc(-c2nc3cc(C(F)(F)F)ncc3n2C)c(SCC)c1 [Compound P82, 2-[5-(1,1-dimethylprop-2-ynoxy)-3-ethylsulfanyl-2-pyridyl]-3-methyl-6-(trifluoromethyl)imidazo[4,5-c]pyridine]
≥ 80%: mortality at 200 ppm [2] | percent effect (mortality or growth inhibition) at 200 ppm [3] | mortality at 200 ppm [4]

CCS(=O)(=O)c1cc(O[C@H]2C[C@H](OC)C2)cnc1-c1nc2cc(C(F)(F)F)ncc2n1C [Compound P45, 2-[3-ethylsulfonyl-5-(3-methoxycyclobutoxy)-2-pyridyl]-3-methyl-6-(trifluoromethyl)imidazo[4,5-c]pyridine]
≥ 80%: mortality at 200 ppm [1] | mortality at 200 ppm [2] | percent effect (mortality or growth inhibition) at 200 ppm [3] | percent effect (mortality or growth inhibition) at 200 ppm [5] | mortality at 24 ppm [6]

CCS(=O)(=O)c1cc(OCC2CCC2)cnc1-c1nc2cc(C(F)(F)F)ncc2n1C [Compound P69, 2-[5-(cyclobutylmethoxy)-3-ethylsulfonyl-2-pyridyl]-3-methyl-6-(trifluoromethyl)imidazo[4,5-c]pyridine]
≥ 80%: mortality at 200 ppm [1] | mortality at 200 ppm [2] | percent effect (mortality or growth inhibition) at 200 ppm [3] | mortality at 200 ppm [4]

CCOC(=O)Oc1cnc(-c2nc3cc(C(F)(F)F)ncc3n2C)c(S(=O)(=O)CC)c1 [Compound P84, ethyl [5-ethylsulfonyl-6-[3-methyl-6-(trifluoromethyl)imidazo[4,5-c]pyridin-2-yl]-3-pyridyl] carbonate]
≥ 80%: mortality at 200 ppm [2]

CCS(=O)(=O)c1cc(OC(F)(F)F)cnc1-c1nc2cc(C(F)(F)F)ncc2n1C [Compound P98, 2-[3-ethylsulfonyl-5-(trifluoromethoxy)-2-pyridyl]-3-methyl-6-(trifluoromethyl)imidazo[4,5-c]pyridine]
≥ 80%: mortality at 200 ppm [2] | percent effect (mortality or growth inhibition) at 200 ppm [3] | mortality at 200 ppm [4] | percent effect (mortality or growth inhibition) at 200 ppm [5]

CCOc1cnc(-c2nc3cc(C(F)(F)F)ncc3n2C)c(S(=O)(=O)CC)c1 [Compound P12, 2-(5-ethoxy-3-ethylsulfonyl-2-pyridyl)-3-methyl-6-(trifluoromethyl)imidazo[4,5-c]pyridine]
≥ 80%: mortality at 200 ppm [1] | mortality at 200 ppm [2] | mortality at 200 ppm [4] | percent effect (mortality or growth inhibition) at 200 ppm [5] | mortality at 24 ppm [6]

CCS(=O)(=O)c1cc(O/N=C(\C)c2cc(F)cc(F)c2)cnc1-c1nc2cc(C(F)(F)F)ncc2n1C [Compound P96, (E)-1-(3,5-difluorophenyl)-N-[[5-ethylsulfonyl-6-[3-methyl-6-(trifluoromethyl)imidazo[4,5-c]pyridin-2-yl]-3-pyridyl]oxy]ethanimine]
≥ 80%: mortality at 200 ppm [2] | percent effect (mortality or growth inhibition) at 200 ppm [3] | mortality at 200 ppm [4] | percent effect (mortality or growth inhibition) at 200 ppm [5]

CCS(=O)(=O)c1cc(OC(F)(F)C(=O)N(C)C)cnc1-c1nc2cc(C(F)(F)F)ncc2n1C [Compound P6, 2-[[5-ethylsulfonyl-6-[3-methyl-6-(trifluoromethyl)imidazo[4,5-c]pyridin-2-yl]-3-pyridyl]oxy]-2,2-difluoro-N,N-dimethyl-acetamide]
≥ 80%: mortality at 200 ppm [1] | percent effect (mortality or growth inhibition) at 200 ppm [3] | mortality at 200 ppm [4] | percent effect (mortality or growth inhibition) at 200 ppm [5] | mortality at 24 ppm [6]

CCSc1cc(OC(C)C)cnc1-c1nc2cc(SC(F)(F)F)ncc2n1C [Compound P74, 2-(3-ethylsulfanyl-5-isopropoxy-2-pyridyl)-3-methyl-6-(trifluoromethylsulfanyl)imidazo[4,5-c]pyridine]
≥ 80%: mortality at 200 ppm [1] | mortality at 200 ppm [2] | percent effect (mortality or growth inhibition) at 200 ppm [3] | mortality at 200 ppm [4] | percent effect (mortality or growth inhibition) at 200 ppm [5]

CCS(=O)(=O)c1cc(OC2(C)COC2)cnc1-c1nc2cc(C(F)(F)F)ncc2n1C [Compound P4, 2-[3-ethylsulfonyl-5-(3-methyloxetan-3-yl)oxy-2-pyridyl]-3-methyl-6-(trifluoromethyl)imidazo[4,5-c]pyridine]
≥ 80%: mortality at 200 ppm [1] | percent effect (mortality or growth inhibition) at 200 ppm [3] | mortality at 200 ppm [4] | percent effect (mortality or growth inhibition) at 200 ppm [5] | mortality at 24 ppm [6]

CCSc1cc(OC(C)C)cnc1-c1nc2cc(C(F)(F)F)ncc2n1C [Compound P27, 2-(3-ethylsulfanyl-5-isopropoxy-2-pyridyl)-3-methyl-6-(trifluoromethyl)imidazo[4,5-c]pyridine]
≥ 80%: mortality at 200 ppm [1] | mortality at 200 ppm [2] | mortality at 200 ppm [4] | percent effect (mortality or growth inhibition) at 200 ppm [5]

CCS(=O)(=O)c1cc(OC(C)C)ccc1-c1nc2cc(C(F)(F)F)ncc2n1C [Compound P108, 2-(2-ethylsulfonyl-4-isopropoxy-phenyl)-3-methyl-6-(trifluoromethyl)imidazo[4,5-c]pyridine]
≥ 80%: mortality at 200 ppm [1] | mortality at 200 ppm [2] | percent effect (mortality or growth inhibition) at 200 ppm [3] | mortality at 200 ppm [4] | percent effect (mortality or growth inhibition) at 200 ppm [5]

CCS(=O)(=O)c1cc(OCC(C)=O)cnc1-c1nc2cc(C(F)(F)F)ncc2n1C [Compound P65, 1-[[5-ethylsulfonyl-6-[3-methyl-6-(trifluoromethyl)imidazo[4,5-c]pyridin-2-yl]-3-pyridyl]oxy]propan-2-one]
≥ 80%: mortality at 200 ppm [1] | percent effect (mortality or growth inhibition) at 200 ppm [3] | mortality at 200 ppm [4] | percent effect (mortality or growth inhibition) at 200 ppm [5] | mortality at 24 ppm [6]

CCSc1cc(OC(C)C)cnc1-c1nc2cc(S(=O)(=O)C(F)(F)F)ncc2n1C [Compound P73, 2-(3-ethylsulfanyl-5-isopropoxy-2-pyridyl)-3-methyl-6-(trifluoromethylsulfonyl)imidazo[4,5-c]pyridine]
≥ 80%: mortality at 200 ppm [1] | mortality at 200 ppm [2] | percent effect (mortality or growth inhibition) at 200 ppm [3] | mortality at 200 ppm [4] | percent effect (mortality or growth inhibition) at 200 ppm [5]

CCS(=O)(=O)c1cc(OS(=O)(=O)C(F)(F)F)cnc1-c1nc2cc(C(F)(F)F)ncc2n1C [Compound P92, [5-ethylsulfonyl-6-[3-methyl-6-(trifluoromethyl)imidazo[4,5-c]pyridin-2-yl]-3-pyridyl] trifluoromethanesulfonate]
≥ 80%: mortality at 200 ppm [2]
